The text below walks through data of US8003704B2, “Methods and compositions for the treatment of alcoholism and alcohol dependence” (priority 2000, dated 2011).

Holding throughout (format): biochemical
The test system of assay [1] is AlDH of bacterial sources. The assay can be described thus: Screening of tryptophan metabolites for inhibition of bacterial AlDH activity in vitro. To be noted: for % inhibition of AlDH activity: 100 μM concentration, in vitro. The procedure: Tryptophan and its various metabolites were tested for possible inhibition of activity of AlDH of bacterial sources. The terms “inhibitor of AlDH activity” and the like mean that the activity of AlDH in vivo in the presence of the inhibitor is reduced. In practice, this may be predicted by reference to the inhibitory activity of the compound or composition in vitro.
An enzyme preparation was purchased from Sigma, (Poole, Dorset, UK) and was used for the screening of tryptophan and its metabolites. A number of preliminary experiments were performed to optimise the conditions of the assay, which was performed according to standard experimental conditions published in the literature and well known to those skilled in the art. All assays were performed in triplicate or quadruplicate determinations for both controls (no additions) and tryptophan metabolites.
Tryptophan and its metabolites were first tested at a 100 μM concentration. The tryptophan metabolites screened included the following: […]

The target in assay [2] is T1, low Km AlDH from rat liver (Rattus norvegicus, UniProt P11884).
T1 construct: using a preparation from rat liver containing both Low Km and high Km AlDH; from tissue; host or cells: rat liver preparation
T1 sequence (P11884 20-519): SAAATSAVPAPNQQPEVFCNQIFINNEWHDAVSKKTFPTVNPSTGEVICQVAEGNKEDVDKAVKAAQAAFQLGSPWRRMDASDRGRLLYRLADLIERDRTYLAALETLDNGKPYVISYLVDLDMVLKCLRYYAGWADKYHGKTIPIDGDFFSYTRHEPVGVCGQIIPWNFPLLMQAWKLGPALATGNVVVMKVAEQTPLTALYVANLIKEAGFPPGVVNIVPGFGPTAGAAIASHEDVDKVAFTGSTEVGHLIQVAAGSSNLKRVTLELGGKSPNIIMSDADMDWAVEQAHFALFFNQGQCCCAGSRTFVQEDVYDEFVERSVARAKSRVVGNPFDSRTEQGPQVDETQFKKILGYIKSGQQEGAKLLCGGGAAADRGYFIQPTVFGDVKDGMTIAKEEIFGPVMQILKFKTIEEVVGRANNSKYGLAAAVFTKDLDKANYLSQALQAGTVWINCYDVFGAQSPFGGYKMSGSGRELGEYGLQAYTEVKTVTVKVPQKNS
Description: Inhibition of mammalian mitochondrial (low Km) AlDH in rat liver preparation. To be noted: Example 4, rat liver low Km AlDH, 5 μM acetaldehyde. The procedure: Experiments were therefore performed using a preparation from rat liver in which both the low Km and the high Km enzymes can be measured simultaneously, but at different substrate (acetaldehyde) concentrations, namely, 5 μM for the low Km and 5 mM for the high Km, enzyme.

Assay [3] concerns the target T1, low Km AlDH from rat liver. The assay is described as above. To be noted: Example 3, preliminary results, 2 μM concentration.

`Nc1c(O)cccc1C(=O)O` [3-hydroxyanthranilic acid]: the “inhibition of bacterial AlDH activity” value is reported as 3% in assay [1] (2 μM concentration) and 17% in assay [1] (10 μM concentration). For the same compound, the “% inhibition of AlDH activity” value in assay [1] was found to be 97%. In addition, the results for the “inhibition of activity of the low Km enzyme” value in assay [2] (2 μM concentration), in assay [2] (10 μM concentration) and in assay [2] (100 μM concentration) were 46%, 54% and 76%, respectively. In addition, the “inhibition of the mammalian low km enzyme” value in assay [3] came to 46%.
As to `Nc1c(O)cccc1C(=O)CC(N)C(=O)O` (stereo not drawn) [3-hydroxykynurenine], the “inhibition of bacterial AlDH activity” value was “+1%” in assay [1] (2 μM concentration) and 55% in assay [1] (10 μM concentration). Also, the “% inhibition of AlDH activity” value in assay [1] amounted to 97%. The “inhibition of activity of the low Km enzyme” value in assay [2] (2 μM concentration) was 55%; in assay [2] (10 μM concentration) it was 52%; in assay [2] (100 μM concentration) it was 69%. The “inhibition of the mammalian low km enzyme” value in assay [3] worked out at 65%.
Take `O=C(O)Cc1c[nH]c2ccc(O)cc12` [5-hydroxyindol-3-ylacetic acid]: the “% inhibition of AlDH activity” value in assay [1] was 4%.
With `NCCc1c[nH]c2ccc(O)cc12` [5-hydroxytryptamine], the “% inhibition of AlDH activity” value in assay [1] is 15%.
As to `OCCc1c[nH]c2ccc(O)cc12` [5-hydroxytryptophol], in assay [1], the “% inhibition of AlDH activity” value amounted to 7%.
For the compound `N[C@@H](Cc1c[nH]c2ccc(O)cc12)C(=O)O` [5-hydroxytrytophan], the “% inhibition of AlDH activity” value in assay [1] came out at 23%.
On the same count and under the same terms, next, `Nc1ccccc1C(=O)O` [anthranilic acid]: 9%.
Turning to `CCN(CC)C(=S)SSC(=S)N(CC)CC` [disulfiram, reference compound], the “inhibition of activity of the low Km enzyme” value in assay [2] (2 μM concentration) is recorded as 30-46%; in assay [2] (10 μM concentration), 38-43%; in assay [2] (100 μM concentration), 46-50%. Besides, in assay [3], the “inhibition of the mammalian low km enzyme” value is listed as 30-46%.
Consider `O=CCc1c[nH]c2ccccc12` [indol-3-ylacetaldehyde], for which the “% inhibition of AlDH activity” value in assay [1] came to 55%.
For the compound `O=C(O)Cc1c[nH]c2ccccc12` [indol-3-ylacetic acid], the “% inhibition of AlDH activity” value in assay [1] is on record as 11%.
In the case of `O=C(O)C(=O)Cc1c[nH]c2ccccc12` [indol-3-ylpyruvic acid], the “inhibition of bacterial AlDH activity” value in assay [1] (2 μM concentration) is 24%; in assay [1] (10 μM concentration) it was 29%. Besides, the “% inhibition of AlDH activity” value in assay [1] is 94%. Also, the “inhibition of activity of the low Km enzyme” value was found to be 30% in assay [2] (2 μM concentration), 38% in assay [2] (10 μM concentration) and 53% in assay [2] (100 μM concentration). Further, in assay [3], the “inhibition of the mammalian low km enzyme” value amounted to 37%.
Turning to `O=C(O)c1cc(=O)c2ccccc2[nH]1` [kynurenic acid], the “inhibition of bacterial AlDH activity” value came out at 5% in assay [1] (2 μM concentration) and 30% in assay [1] (10 μM concentration). The “% inhibition of AlDH activity” value in assay [1] is 90%. The “inhibition of activity of the low Km enzyme” value in assay [2] (2 μM concentration) is 40%; in assay [2] (10 μM concentration), 43%; in assay [2] (100 μM concentration) it was 43%. Also, the “inhibition of the mammalian low km enzyme” value in assay [3] is 30%.
Consider `Nc1ccccc1C(=O)CC(N)C(=O)O` (stereo not drawn) [kynurenine], for which, in assay [1], the “% inhibition of AlDH activity” value is recorded as 24%.
For the compound `NC(=O)c1cccnc1` [nicotinamide], the “% inhibition of AlDH activity” value in assay [1] amounted to 7%.
Turning to `c1ccc2c(c1)[nH]c1cnccc12` [norharman], the “% inhibition of AlDH activity” value in assay [1] came to 23%.
In the case of `O=C(O)c1ccc2ccccc2n1` [quinaldic acid], the “% inhibition of AlDH activity” value in assay [1] turned out to be 7%.
On to `O=C(O)c1cccnc1C(=O)O` [quinolinic acid], for which the “% inhibition of AlDH activity” value in assay [1] was 13%.
Turning to `NCCc1c[nH]c2ccccc12` [tryptamine], the “% inhibition of AlDH activity” value in assay [1] was 0%.
For `N[C@@H](Cc1c[nH]c2ccccc12)C(=O)O` [tryptophan], the “% inhibition of AlDH activity” value in assay [1] is 2%.
Regarding `O=C(O)c1cc(O)c2cccc(O)c2n1` [xanthurenic acid], the “% inhibition of AlDH activity” value in assay [1] was 56%.
Regarding `O=C(O)CCCC(=O)C(=O)O` [α-ketoadipic acid], the “% inhibition of AlDH activity” value in assay [1] is listed as 1%.
